Source: the NIST ThermoML archive (doi:10.1021/je200784y)
Numbers after ± are expanded uncertainties.

Settings: Liquid, Ebulliometric method (Recirculating still)

CCOC(=O)OCC [diethyl carbonate]
vapor or sublimation pressure (354.68 K): 22.56 ± 0.11 kPa
vapor or sublimation pressure (357.44 K): 25.03 ± 0.11 kPa
vapor or sublimation pressure (359.95 K): 27.54 ± 0.11 kPa
vapor or sublimation pressure (362.26 K): 29.99 ± 0.11 kPa
vapor or sublimation pressure (364.46 K): 32.51 ± 0.11 kPa
vapor or sublimation pressure (366.57 K): 35.05 ± 0.11 kPa
vapor or sublimation pressure (368.45 K): 37.52 ± 0.11 kPa
vapor or sublimation pressure (370.28 K): 40.03 ± 0.11 kPa
vapor or sublimation pressure (372.04 K): 42.49 ± 0.12 kPa
vapor or sublimation pressure (373.73 K): 45.05 ± 0.12 kPa
vapor or sublimation pressure (375.26 K): 47.47 ± 0.12 kPa
vapor or sublimation pressure (376.81 K): 50.04 ± 0.12 kPa
vapor or sublimation pressure (378.22 K): 52.46 ± 0.12 kPa
vapor or sublimation pressure (379.67 K): 55.03 ± 0.12 kPa
vapor or sublimation pressure (381.03 K): 57.56 ± 0.13 kPa
vapor or sublimation pressure (382.32 K): 59.95 ± 0.13 kPa
vapor or sublimation pressure (383.6 K): 62.52 ± 0.13 kPa
vapor or sublimation pressure (384.81 K): 64.97 ± 0.13 kPa
vapor or sublimation pressure (385.98 K): 67.44 ± 0.13 kPa
vapor or sublimation pressure (387.13 K): 70.02 ± 0.13 kPa
vapor or sublimation pressure (388.28 K): 72.51 ± 0.14 kPa
vapor or sublimation pressure (389.32 K): 74.96 ± 0.14 kPa
vapor or sublimation pressure (390.35 K): 77.43 ± 0.14 kPa
vapor or sublimation pressure (391.39 K): 79.97 ± 0.14 kPa
vapor or sublimation pressure (392.45 K): 82.52 ± 0.14 kPa
vapor or sublimation pressure (393.34 K): 84.84 ± 0.15 kPa
vapor or sublimation pressure (394.36 K): 87.52 ± 0.15 kPa
vapor or sublimation pressure (395.23 K): 89.81 ± 0.15 kPa
vapor or sublimation pressure (396.21 K): 92.53 ± 0.15 kPa
vapor or sublimation pressure (397.03 K): 94.89 ± 0.15 kPa
vapor or sublimation pressure (397.96 K): 97.54 ± 0.15 kPa
vapor or sublimation pressure (398.81 K): 100.03 ± 0.16 kPa
vapor or sublimation pressure (399.27 K): 101.38 ± 0.16 kPa
